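Interpolation was linear, between the two tested concentrations surrounding the appropriate level; five concentrations were tested over 48 hours in 96-well plates. TGI marks complete inhibition of growth.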
tested on: UO-31 renal; test: inhibition of tumour cell growth, NCI panel, 48 h

Going from `Cc1ccc2c(c1)CN1c3ccc(C)cc3CN2C1c1ccccc1O` to `CC1=NN(C(=O)Cc2ccccc2)C(=O)/C1=C\c1ccc(O)cc1`, the TGI rises from 88.2 µM to > 100 µM.

`N#CNC(N)=NCc1ccccc1` and `O=C(NCc1ccccc1)c1cc2ccccc2oc1=Nc1cccc(C(F)(F)F)c1` cannot be ordered by TGI: > 100 µM for the first, > 100 µM for the second.

Compared with `CC1=N/C(=C\c2ccc(/C=C3/N=C(C)OC3=O)cc2)C(=O)O1`, `CC1=CC2C3(C)C(C)(C(C)=CP3(=O)c3c(C(C)C)cc(C(C)C)cc3C(C)C)C1P2(=O)c1c(C(C)C)cc(C(C)C)cc1C(C)C` (configuration not stated) is lower in TGI: > 100 µM for the first, 4.36 µM for the second.

tested on: KM20L2 colon; test: inhibition of tumour cell growth, NCI panel, 48 h

`N#CNC(N)=NCc1ccccc1` and `CC1=NN(C(=O)Cc2ccccc2)C(=O)/C1=C\c1ccc(O)cc1` cannot be ordered by TGI: > 100 µM for the first, > 100 µM for the second.

For `CC1=N/C(=C\c2ccc(/C=C3/N=C(C)OC3=O)cc2)C(=O)O1`, the TGI was > 100 µM.

tested on: OVCAR-8 ovarian; test: inhibition of tumour cell growth, NCI panel, 48 h

`O=C1Oc2ccccc2C(=O)/C1=C1/C=C(c2ccccc2)SS1` and `O=C(NCc1ccccc1)c1cc2ccccc2oc1=Nc1cccc(C(F)(F)F)c1` cannot be ordered by TGI: > 100 µM for the first, > 100 µM for the second.

`Cc1ccc2c(c1)CN1c3ccc(C)cc3CN2C1c1ccccc1O` and `CC1=NN(C(=O)Cc2ccccc2)C(=O)/C1=C\c1ccc(O)cc1` cannot be ordered by TGI: > 100 µM for the first, > 100 µM for the second.

`N#CNC(N)=NCc1ccccc1` and `CC1=N/C(=C\c2ccc(/C=C3/N=C(C)OC3=O)cc2)C(=O)O1` cannot be ordered by TGI: > 100 µM for the first, > 100 µM for the second.

Work on `CC1=CC2C3(C)C(C)(C(C)=CP3(=O)c3c(C(C)C)cc(C(C)C)cc3C(C)C)C1P2(=O)c1c(C(C)C)cc(C(C)C)cc1C(C)C` (configuration not stated) yielded a TGI of 16.6 µM.

tested on: MCF7 breast; test: inhibition of tumour cell growth, NCI panel, 48 h

`O=C1Oc2ccccc2C(=O)/C1=C1/C=C(c2ccccc2)SS1` and `O=C(NCc1ccccc1)c1cc2ccccc2oc1=Nc1cccc(C(F)(F)F)c1` cannot be ordered by TGI: > 100 µM for the first, > 100 µM for the second.

Compound `CC1=CC2C3(C)C(C)(C(C)=CP3(=O)c3c(C(C)C)cc(C(C)C)cc3C(C)C)C1P2(=O)c1c(C(C)C)cc(C(C)C)cc1C(C)C` (configuration not stated) has a TGI of 6.38 µM.

tested on: SN12C renal; test: inhibition of tumour cell growth, NCI panel, 48 h

Going from `O=C1Oc2ccccc2C(=O)/C1=C1/C=C(c2ccccc2)SS1` to `O=C(NCc1ccccc1)c1cc2ccccc2oc1=Nc1cccc(C(F)(F)F)c1`, the TGI falls from > 100 µM to 62.7 µM.

`Cc1ccc2c(c1)CN1c3ccc(C)cc3CN2C1c1ccccc1O` and `CC1=NN(C(=O)Cc2ccccc2)C(=O)/C1=C\c1ccc(O)cc1` cannot be ordered by TGI: > 100 µM for the first, > 100 µM for the second.

`N#CNC(N)=NCc1ccccc1` and `CC1=N/C(=C\c2ccc(/C=C3/N=C(C)OC3=O)cc2)C(=O)O1` cannot be ordered by TGI: > 100 µM for the first, > 100 µM for the second.

In the case of `CC1=CC2C3(C)C(C)(C(C)=CP3(=O)c3c(C(C)C)cc(C(C)C)cc3C(C)C)C1P2(=O)c1c(C(C)C)cc(C(C)C)cc1C(C)C` (configuration not stated), the TGI is reported as 7.9 µM.

tested on: DU-145 prostate; test: inhibition of tumour cell growth, NCI panel, 48 h

`O=C1Oc2ccccc2C(=O)/C1=C1/C=C(c2ccccc2)SS1` and `O=C(NCc1ccccc1)c1cc2ccccc2oc1=Nc1cccc(C(F)(F)F)c1` cannot be ordered by TGI: > 100 µM for the first, > 100 µM for the second.

Compound `CC1=CC2C3(C)C(C)(C(C)=CP3(=O)c3c(C(C)C)cc(C(C)C)cc3C(C)C)C1P2(=O)c1c(C(C)C)cc(C(C)C)cc1C(C)C` (configuration not stated) has a TGI of 14.2 µM.

tested on: MDA-N; test: inhibition of tumour cell growth, NCI panel, 48 h

`O=C1Oc2ccccc2C(=O)/C1=C1/C=C(c2ccccc2)SS1` and `O=C(NCc1ccccc1)c1cc2ccccc2oc1=Nc1cccc(C(F)(F)F)c1` cannot be ordered by TGI: > 100 µM for the first, > 100 µM for the second.

`CC1=CC2C3(C)C(C)(C(C)=CP3(=O)c3c(C(C)C)cc(C(C)C)cc3C(C)C)C1P2(=O)c1c(C(C)C)cc(C(C)C)cc1C(C)C` (configuration not stated) showed a TGI of 5.62 µM.

tested on: BT-549 breast; test: inhibition of tumour cell growth, NCI panel, 48 h

`O=C1Oc2ccccc2C(=O)/C1=C1/C=C(c2ccccc2)SS1` and `O=C(NCc1ccccc1)c1cc2ccccc2oc1=Nc1cccc(C(F)(F)F)c1` cannot be ordered by TGI: > 100 µM for the first, > 100 µM for the second.

`CC1=CC2C3(C)C(C)(C(C)=CP3(=O)c3c(C(C)C)cc(C(C)C)cc3C(C)C)C1P2(=O)c1c(C(C)C)cc(C(C)C)cc1C(C)C` (configuration not stated) was tested, and the TGI was 4.58 µM.

tested on: A498 renal; test: inhibition of tumour cell growth, NCI panel, 48 h

`O=C1Oc2ccccc2C(=O)/C1=C1/C=C(c2ccccc2)SS1` and `O=C(NCc1ccccc1)c1cc2ccccc2oc1=Nc1cccc(C(F)(F)F)c1` cannot be ordered by TGI: > 100 µM for the first, > 100 µM for the second.

`N#CNC(N)=NCc1ccccc1` and `CC1=NN(C(=O)Cc2ccccc2)C(=O)/C1=C\c1ccc(O)cc1` cannot be ordered by TGI: > 100 µM for the first, > 100 µM for the second.

Going from `CC1=N/C(=C\c2ccc(/C=C3/N=C(C)OC3=O)cc2)C(=O)O1` to `CC1=CC2C3(C)C(C)(C(C)=CP3(=O)c3c(C(C)C)cc(C(C)C)cc3C(C)C)C1P2(=O)c1c(C(C)C)cc(C(C)C)cc1C(C)C` (configuration not stated), the TGI falls from > 100 µM to 6.26 µM.

tested on: DMS 273 small cell lung; test: inhibition of tumour cell growth, NCI panel, 48 h

`Cc1ccc2c(c1)CN1c3ccc(C)cc3CN2C1c1ccccc1O` and `CC1=N/C(=C\c2ccc(/C=C3/N=C(C)OC3=O)cc2)C(=O)O1` cannot be ordered by TGI: > 100 µM for the first, > 100 µM for the second.

For `N#CNC(N)=NCc1ccccc1`, the TGI was > 100 µM.

tested on: NCI-H460 lung; test: inhibition of tumour cell growth, NCI panel, 48 h

`O=C1Oc2ccccc2C(=O)/C1=C1/C=C(c2ccccc2)SS1` and `Cc1ccc2c(c1)CN1c3ccc(C)cc3CN2C1c1ccccc1O` cannot be ordered by TGI: > 100 µM for the first, > 100 µM for the second.

With `N#CNC(N)=NCc1ccccc1` the TGI was > 100 µM.
